This note sets out measurements from US20190336537A1, “GENERATING ATRIAL AND VENTRICULAR CARDIOMYOCYTE LINEAGES FROM HUMAN PLURIPOTENT STEM CELLS” (UNIVERSITY HEALTH NETWORK, priority 2016, published 2019).

For this test, the system named is MSC-iPS1 induced pluripotent stem cell line derived EBs. The test is described as follows: Flow cytometry of ALDH activity and CD235a in MSC-iPS1-derived EBs treated with SB-431542. The conditions noted are these: SB days 3 to 5, cells induced with 4B/1A. The class given is cell-based, human. The text has this:
To determine if the approach for optimizing atrial and ventricular differentiation based on ALDH activity and CD235a expression is broadly applicable, we next used it to generate these cardiomyocyte populations from the HES2 human embryonic stem cell and the MSC-iPS1 induced pluripotent stem cell lines. Titration studies identified 5B/2A and 5B/6A as optimal for atrial and ventricular inductions, respectively, for HES2 cells and 4B/4A as optimal for ventricular induction for MSCiPSC1 cells (FIGS. 7A, 7B, 7E, and 7F; Mendeley http://dx.doi.org/10.17632/7z7d5v2c3w.1). Optimization of atrial induction from the MSC-iPSC1 cells was more challenging, as all cytokine combinations promoted the development of a substantial CD235a+ population. One interpretation of these patterns is that the MSC-iPS1 cells have a high level of endogenous Nodal/Activin A signaling, resulting in the development of some CD235a+ cells under all conditions. To test this, we added the Nodal/Activin A/transforming growth factor beta (TGF-beta) inhibitor SB-431542 (SB) from days 3 to 5 to cells induced with 4B/1A.
Day 2-6 EBs were dissociated with TrypLE for 2-4 min at room temperature (RT). Day 20 EBs were dissociated by incubation in Collagenase type 2 (0.5 mg/ml, Worthington) in HANKs buffer overnight at RT followed by TrypLE treatment as described above. The following antibodies were used for staining: anti-PDGFRa-PE (R&D Systems, 3:50), anti-CD235a-APC (BD PharMingen, 1:100), antiSIRPa-PeCy7 (Biolegend, 1:1000), anti-CD90-APC (BD PharMingen, 1:1000), anticardiac isoform of CTNT (ThermoFisher Scientific, 1:2000), or anti-myosin light chain 2 (Abcam, 1:1000). For unconjugated primary antibodies, the following secondary antibodies were used for detection: goat anti-mouse IgG-APC (BD Pharmigen, 1:250), or donkey anti-rabbit IgG-PE (Jackson ImmunoResearch, 1:250). Detailed antibody information is described in Table 2.
The Aldefluor™ assay (STEMCELL Technologies) was performed according to the instruction provided by the manufacturer. […] Stained cells were analyzed as described above. […]
For orientation: In flow cytometry, cells or beads pass a laser one at a time.

Take `NC(=O)c1ccc(-c2nc(-c3ccc4c(c3)OCO4)c(-c3ccccn3)[nH]2)cc1` [SB-431542]: the “CD235a+ cells” value was “reduction”, the “CTNT+MLC2V− cardiogenic potential of the mesoderm” value is given as “without affecting” and the “size of the ALDH+ population” value was “increase in the size”.
